Measured values taken from patent publication US7329634B2, “3-Phenyl substituted 3-substituted-4ketolactams and ketolactones” (Bayer CropScience AG, priority 2003, dated 2008).

Columns and labels:
Meloidogyne incognita = test: Meloidogyne test; assay type: in vivo; settings: 20 ppm; nematicidal action by formation of galls on lettuce roots; 100% = no galls
Protocol: • Solvents: 78 parts by weight of acetone • 1.5 parts by weight of dimethylformamide • Emulsifier: 0.5 part by weight of alkylaryl polyglycol ether
To produce a suitable preparation of active compound, 1 part by weight of active compound is mixed with the stated amounts of solvent and emulsifier, and the concentrate is diluted with water to the desired concentration.
Vessels are filled with sand, solution of active compound, Meloidogyne incognita egg/larvae suspension and lettuce seeds. The lettuce seeds germinate and the plants develop. On the roots, galls develop.
After the desired period of time, the nematicidal action is determined in % by the formation of galls. 100% means that no galls have been found; 0% means that the number of galls on the treated plants corresponds to that of the untreated control.

[1] = system: greenhouse red spider mite (Tetranychus urticae); test: Tetranychus test (OP-resistant/spray treatment); assay type: in vivo; settings: 100 ppm; spray treatment of bean leaf discs (Phaseolus vulgaris); OP-resistant
Protocol: Tetranychus Test (OP-Resistant/Spray Treatment)
• Solvents: 78 parts by weight of acetone • 1.6 parts by weight of dimethylformamide • Emulsifier: 0.5 part by weight of alkylaryl polyglycol ether
To produce a suitable preparation of active compound, 1 part by weight of active compound is mixed with the stated amounts of solvent and emulsifier, and the concentrate is diluted with emulsifier-containing water to the desired concentration.
Discs of the leaves of beans (Phaseolus vulgaris) which are infested by all stages of the greenhouse red spider mite (Tetranychus urticae) are sprayed with a preparation of active compound of the desired concentration.
After the desired period of time, the activity in % is determined. 100% means that all spider mites have been killed; 0% means that none of the spider mites have been killed.

## CCc1cc(Br)cc(Br)c1C1(Cl)C(=O)NC(C)(C)C1=O (centres unmarked) [Ex. I-1-1]
Meloidogyne incognita
  Effect in % after 14d: 100%
[1]
  Kill rate in % after 4d: 80%
